Converted amounts (≈) assume the structure as drawn.
Columns and labels:
Format in all cases: functional
Streptococcus pyogenes [1] = experiment: Antibacterial activity against inducible macrolide-lincosamide-streptogramin B-resistant Streptococcus pyogenes B0543 by agar microdilution method
Streptococcus pyogenes [2] = experiment: Antibacterial activity against erythromycin A-susceptible Streptococcus pyogenes B0542 by agar microdilution method
Streptococcus pneumoniae [3] = experiment: Antibacterial activity against efflux-resistant Streptococcus pneumoniae B0326 by agar microdilution method
Streptococcus pneumoniae [4] = experiment: Antibacterial activity against constitutive macrolide-lincosamide-streptogramin B-resistant Streptococcus pneumoniae B0627 by agar microdilution method
Streptococcus pneumoniae [5] = experiment: Antibacterial activity against erythromycin A-susceptible Streptococcus pneumoniae B0541 by agar microdilution method
Staphylococcus aureus [6] = experiment: Antibacterial activity against efflux-resistant Staphylococcus aureus B0331 by agar microdilution method
Staphylococcus aureus [7] = experiment: Antibacterial activity against constitutive macrolide-lincosamide-streptogramin B-resistant Staphylococcus aureus B0330 by agar microdilution method
Staphylococcus aureus [8] = experiment: Antibacterial activity against inducible macrolide-lincosamide-streptogramin B-resistant Staphylococcus aureus B0538 by agar microdilution method
Staphylococcus aureus [9] = experiment: Antibacterial activity against erythromycin A-susceptible Staphylococcus aureus B0329 by agar microdilution method
Streptococcus pyogenes [10] = experiment: Antibacterial activity against constitutive macrolide-lincosamide-streptogramin B-resistant Streptococcus pyogenes B0544 by agar microdilution method
Streptococcus pyogenes [11] = experiment: Antibacterial activity against efflux-resistant Streptococcus pyogenes B0545 by agar microdilution method
Moraxella catarrhalis = experiment: Antibacterial activity against Moraxella catarrhalis B0324 by agar microdilution method
Haemophilus influenzae = experiment: Antibacterial activity against Haemophilus influenzae B0529 by agar microdilution method

Compound | MIC (Streptococcus pyogenes [1]) [µg/mL] | MIC (Streptococcus pyogenes [2]) [µg/mL] | MIC (Streptococcus pneumoniae [3]) [µg/mL] | MIC (Streptococcus pneumoniae [4]) [µg/mL] | MIC (Streptococcus pneumoniae [5]) [µg/mL] | MIC (Staphylococcus aureus [6]) [µg/mL] | MIC (Staphylococcus aureus [7]) [µg/mL] | MIC (Staphylococcus aureus [8]) [µg/mL] | MIC (Staphylococcus aureus [9]) [µg/mL] | MIC (Streptococcus pyogenes [10]) [µg/mL] | MIC (Streptococcus pyogenes [11]) [µg/mL] | MIC (Moraxella catarrhalis) [µg/mL] | MIC (Haemophilus influenzae) [µg/mL]
CC[C@H]1OC(=O)[C@H](C)C(=O)[C@H](C)[C@@H](O[C@@H]2O[C@H](C)C[C@H](N(C)C)[C@H]2O)[C@](C)(OC[C@H](O)CN2CCN(c3ccc4c(c3F)c(=O)c(C(=O)O)cn4C3CC3)CC2)C[C@@H](C)NC(=O)[C@H](C)[C@H](O)[C@@]1(C)O | 0.5 (≈ 0.512 µM) | ≤ 0.125 | 0.25 (≈ 0.256 µM) | 0.5 (≈ 0.512 µM) | ≤ 0.125 | 0.5 (≈ 0.512 µM) | 8 (≈ 8.2 µM) | 0.25 (≈ 0.256 µM) | ≤ 0.125 | 4 (≈ 4.1 µM) | 0.5 (≈ 0.512 µM) | 0.5 (≈ 0.512 µM) | 0.25 (≈ 0.256 µM)
C=CCO[C@]1(C)C[C@@H](C)C(=O)N[C@H](C)[C@H](O)[C@@](C)(O)[C@@H](CC)OC(=O)[C@H](C)[C@@H](O[C@@H]2C[C@@](C)(OC)[C@@H](O)[C@H](C)O2)[C@H](C)[C@H]1O[C@@H]1O[C@H](C)C[C@H](N(C)C)[C@H]1O | 4 (≈ 5.07 µM) | ≤ 0.125 | > 64 | > 64 | > 64 | > 64 | > 64 | > 64 | > 64 | > 64 | > 64 | 4 (≈ 5.07 µM) | 64 (≈ 81.1 µM)
C=CCO[C@]1(C)C[C@@H](C)NC(=O)[C@H](C)[C@H](O)[C@@](C)(O)[C@@H](CC)OC(=O)[C@H](C)C(=O)[C@H](C)[C@H]1O[C@@H]1O[C@H](C)C[C@H](N(C)C)[C@H]1O | 16 (≈ 25.4 µM) | 0.25 (≈ 0.398 µM) | 16 (≈ 25.4 µM) | > 64 | ≤ 0.125 | 8 (≈ 12.7 µM) | > 64 | 2 (≈ 3.18 µM) | 2 (≈ 3.18 µM) | > 64 | 8 (≈ 12.7 µM) | ≤ 0.125 | 16 (≈ 25.4 µM)
CC[C@H]1OC(=O)[C@H](C)C(=O)[C@H](C)[C@@H](O[C@@H]2O[C@H](C)C[C@H](N(C)C)[C@H]2O)[C@](C)(OCC(O)CN(C)CCc2ccc([N+](=O)[O-])cc2)C[C@@H](C)NC(=O)[C@H](C)[C@H](O)[C@@]1(C)O (stereo partly drawn) | 0.25 (≈ 0.303 µM) | ≤ 0.125 | 0.5 (≈ 0.606 µM) | ≤ 0.125 | ≤ 0.125 | 1 (≈ 1.21 µM) | > 64 | 0.5 (≈ 0.606 µM) | ≤ 0.125 | 1 (≈ 1.21 µM) | 0.25 (≈ 0.303 µM) | ≤ 0.125 | 1 (≈ 1.21 µM)
CC[C@H]1OC(=O)[C@H](C)C(=O)[C@H](C)[C@@H](O[C@@H]2O[C@H](C)C[C@H](N(C)C)[C@H]2O)[C@](C)(OCC(O)CNc2ccc3ncccc3c2)C[C@@H](C)NC(=O)[C@H](C)[C@H](O)[C@@]1(C)O (stereo partly drawn) | 4 (≈ 5.07 µM) | ≤ 0.125 | 2 (≈ 2.53 µM) | 8 (≈ 10.1 µM) | ≤ 0.125 | 1 (≈ 1.27 µM) | 64 (≈ 81.1 µM) | 2 (≈ 2.53 µM) | 2 (≈ 2.53 µM) | 16 (≈ 20.3 µM) | 8 (≈ 10.1 µM) | 0.5 (≈ 0.634 µM) | ≤ 0.125
CC[C@H]1OC(=O)[C@H](C)[C@@H](O[C@H]2C[C@@](C)(OC)[C@@H](O)[C@H](C)O2)[C@H](C)[C@@H](O[C@@H]2O[C@H](C)C[C@H](N(C)C)[C@H]2O)[C@](C)(O)C[C@@H](C)CN(C)[C@H](C)[C@@H](O)[C@]1(C)O [AZITHROMYCIN] | 8 (≈ 10.7 µM) | ≤ 0.125 | 4 (≈ 5.34 µM) | > 64 | ≤ 0.125 | > 64 | > 64 | > 64 | 1 (≈ 1.34 µM) | > 64 | 1 (≈ 1.34 µM) | 0.25 (≈ 0.334 µM) | 1 (≈ 1.34 µM)
CC[C@H]1OC(=O)[C@H](C)C(=O)[C@H](C)[C@@H](O[C@@H]2O[C@H](C)C[C@H](N(C)C)[C@H]2O)[C@](C)(OCC(O)CN2CCN(c3ccc4c(c3)c(=O)c(C(=O)O)cn4C3CC3)CC2)C[C@@H](C)NC(=O)[C@H](C)[C@H](O)[C@@]1(C)O (stereo partly drawn) | 0.25 (≈ 0.261 µM) | ≤ 0.125 | 0.5 (≈ 0.522 µM) | 1 (≈ 1.04 µM) | ≤ 0.125 | 2 (≈ 2.09 µM) | > 64 | 0.25 (≈ 0.261 µM) | 0.25 (≈ 0.261 µM) | 4 (≈ 4.17 µM) | 2 (≈ 2.09 µM) | 1 (≈ 1.04 µM) | 2 (≈ 2.09 µM)
CC[C@H]1OC(=O)[C@H](C)C(=O)[C@H](C)[C@@H](O[C@@H]2O[C@H](C)C[C@H](N(C)C)[C@H]2O)[C@](C)(OC/C=C/c2cccc3ccccc23)C[C@@H](C)NC(=O)[C@H](C)[C@H](O)[C@@]1(C)O | 4 (≈ 5.3 µM) | 0.25 (≈ 0.331 µM) | 2 (≈ 2.65 µM) | > 64 | ≤ 0.125 | 4 (≈ 5.3 µM) | > 64 | 2 (≈ 2.65 µM) | 1 (≈ 1.32 µM) | > 64 | 2 (≈ 2.65 µM) | 0.25 (≈ 0.331 µM) | 8 (≈ 10.6 µM)
CC[C@H]1OC(=O)[C@H](C)C(=O)[C@H](C)[C@@H](O[C@@H]2O[C@H](C)C[C@H](N(C)C)[C@H]2O)[C@](C)(OCC(O)CNCCc2ccccc2)C[C@@H](C)NC(=O)[C@H](C)[C@H](O)[C@@]1(C)O (stereo partly drawn) | 1 (≈ 1.31 µM) | 0.5 (≈ 0.653 µM) | 16 (≈ 20.9 µM) | 8 (≈ 10.4 µM) | 0.25 (≈ 0.326 µM) | 8 (≈ 10.4 µM) | > 64 | 16 (≈ 20.9 µM) | 4 (≈ 5.22 µM) | 16 (≈ 20.9 µM) | 1 (≈ 1.31 µM) | 0.5 (≈ 0.653 µM) | 16 (≈ 20.9 µM)
CC[C@H]1OC(=O)[C@H](C)C(=O)[C@H](C)[C@@H](O[C@@H]2O[C@H](C)C[C@H](N(C)C)[C@H]2O)[C@](C)(OCC(O)CNCC(C)C)C[C@@H](C)NC(=O)[C@H](C)[C@H](O)[C@@]1(C)O (stereo partly drawn) | 64 (≈ 89.1 µM) | 8 (≈ 11.1 µM) | 64 (≈ 89.1 µM) | > 64 | 16 (≈ 22.3 µM) | 64 (≈ 89.1 µM) | > 64 | 64 (≈ 89.1 µM) | 64 (≈ 89.1 µM) | > 64 | 8 (≈ 11.1 µM) | 16 (≈ 22.3 µM) | > 64
CC[C@H]1OC(=O)[C@H](C)C(=O)[C@H](C)[C@@H](O[C@@H]2O[C@H](C)C[C@H](N(C)C)[C@H]2O)[C@](C)(OC/C=C/c2cnc3ccccc3c2)C[C@@H](C)C(=O)N[C@H](C)[C@H](O)[C@@]1(C)OC/C=C/c1cnc2ccccc2c1 | 0.5 (≈ 0.542 µM) | ≤ 0.125 | 0.5 (≈ 0.542 µM) | 4 (≈ 4.33 µM) | ≤ 0.125 | 0.5 (≈ 0.542 µM) | > 64 | 0.25 (≈ 0.271 µM) | ≤ 0.125 | 8 (≈ 8.67 µM) | 0.5 (≈ 0.542 µM) | 0.125 (≈ 0.135 µM) | 4 (≈ 4.33 µM)
CC[C@H]1OC(=O)[C@H](C)C(=O)[C@H](C)[C@@H](O[C@@H]2O[C@H](C)C[C@H](N(C)C)[C@H]2O)[C@](C)(OC/C=C/c2cnc3ccccc3c2)C[C@@H](C)NC(=O)[C@H](C)[C@H](O)[C@@]1(C)O | 1 (≈ 1.32 µM) | ≤ 0.125 | 0.5 (≈ 0.661 µM) | 16 (≈ 21.2 µM) | ≤ 0.125 | 0.5 (≈ 0.661 µM) | > 64 | 0.5 (≈ 0.661 µM) | 1 (≈ 1.32 µM) | 8 (≈ 10.6 µM) | 1 (≈ 1.32 µM) | 0.25 (≈ 0.331 µM) | 4 (≈ 5.29 µM)
CC[C@H]1OC(=O)[C@H](C)C(=O)[C@H](C)[C@@H](O[C@@H]2O[C@H](C)C[C@H](N(C)C)[C@H]2O)[C@](C)(OC/C=C/c2cnc3ccccc3c2)C[C@@H](C)NC(=O)[C@H](C)[C@@H]2OC(=O)O[C@]12C | ≤ 0.125 | ≤ 0.125 | ≤ 0.125 | 4 (≈ 5.12 µM) | 0.06 (≈ 0.0767 µM) | 0.25 (≈ 0.32 µM) | 64 (≈ 81.8 µM) | 0.25 (≈ 0.32 µM) | ≤ 0.125 | 8 (≈ 10.2 µM) | 0.5 (≈ 0.639 µM) | 0.25 (≈ 0.32 µM) | 1 (≈ 1.28 µM)
CC[C@H]1OC(=O)[C@H](C)C(=O)[C@H](C)[C@@H](O[C@@H]2O[C@H](C)C[C@H](N(C)C)[C@H]2O)[C@](C)(OC[C@@H](O)CN2CCN(c3ccc4c(c3F)c(=O)c(C(=O)O)cn4C3CC3)CC2)C[C@@H](C)NC(=O)[C@H](C)[C@H](O)[C@@]1(C)O | ≤ 0.125 | ≤ 0.125 | ≤ 0.125 | ≤ 0.125 | ≤ 0.125 | 0.25 (≈ 0.256 µM) | 2 (≈ 2.05 µM) | 0.25 (≈ 0.256 µM) | ≤ 0.125 | 2 (≈ 2.05 µM) | 0.5 (≈ 0.512 µM) | ≤ 0.125 | ≤ 0.125
CC[C@H]1OC(=O)[C@H](C)C(=O)[C@H](C)[C@@H](O[C@@H]2O[C@H](C)C[C@H](N(C)C)[C@H]2O)[C@](C)(OC/C=C/c2ccnc3ccccc23)C[C@@H](C)NC(=O)[C@H](C)[C@H](O)[C@@]1(C)O | 2 (≈ 2.65 µM) | 0.25 (≈ 0.331 µM) | 1 (≈ 1.32 µM) | > 64 | ≤ 0.125 | 2 (≈ 2.65 µM) | > 64 | 1 (≈ 1.32 µM) | 0.5 (≈ 0.661 µM) | 16 (≈ 21.2 µM) | 2 (≈ 2.65 µM) | 0.5 (≈ 0.661 µM) | 4 (≈ 5.29 µM)
CC[C@H]1OC(=O)[C@H](C)C(=O)[C@H](C)[C@@H](O[C@@H]2O[C@H](C)C[C@H](N(C)C)[C@H]2O)[C@](C)(OCC(O)CN2CCN(c3ccc4c(c3F)c(=O)c(C(=O)OC)cn4C3CC3)CC2)C[C@@H](C)NC(=O)[C@H](C)[C@H](O)[C@@]1(C)O (stereo partly drawn) | > 64 | 0.125 (≈ 0.126 µM) | 0.25 (≈ 0.252 µM) | > 64 | 0.125 (≈ 0.126 µM) | 32 (≈ 32.3 µM) | > 64 | > 64 | 4 (≈ 4.04 µM) | > 64 | 16 (≈ 16.2 µM) | 0.5 (≈ 0.505 µM) | 4 (≈ 4.04 µM)

Reference: ChEMBL document CHEMBL1287771, “Novel hybrids of 15-membered 8a- and 9a-azahomoerythromycin A ketolides and quinolones as potent antibacterials” (2010)
